Targets include Adenosine receptor A2a (Homo sapiens, UniProt P29274); D(3) dopamine receptor (Homo sapiens, UniProt P35462); Melanocortin receptor 3 (Homo sapiens, UniProt P41968).
Test [1] addresses Growth hormone secretagogue receptor type 1 (Homo sapiens, UniProt Q92847).
The target of test [2] is Glutamate receptor ionotropic, NMDA 1 (Rattus norvegicus, UniProt P35439).
Test [3] addresses T1, Type-1 angiotensin II receptor (Homo sapiens, UniProt P30556).
T1 sequence (P30556 whole entry): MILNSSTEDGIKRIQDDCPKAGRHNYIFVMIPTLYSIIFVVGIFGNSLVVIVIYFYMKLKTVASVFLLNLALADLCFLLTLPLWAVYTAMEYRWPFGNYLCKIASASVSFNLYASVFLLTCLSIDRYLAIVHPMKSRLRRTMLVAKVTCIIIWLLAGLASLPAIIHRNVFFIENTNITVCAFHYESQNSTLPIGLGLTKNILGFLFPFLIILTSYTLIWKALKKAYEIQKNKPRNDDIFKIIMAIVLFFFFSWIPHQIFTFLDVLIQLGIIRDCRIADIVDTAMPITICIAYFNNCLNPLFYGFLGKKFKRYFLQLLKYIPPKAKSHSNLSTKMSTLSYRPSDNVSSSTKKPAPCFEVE

Test [4] addresses T2, Muscarinic acetylcholine receptor M2 (Homo sapiens, UniProt P08172).
T2 sequence (P08172 whole entry): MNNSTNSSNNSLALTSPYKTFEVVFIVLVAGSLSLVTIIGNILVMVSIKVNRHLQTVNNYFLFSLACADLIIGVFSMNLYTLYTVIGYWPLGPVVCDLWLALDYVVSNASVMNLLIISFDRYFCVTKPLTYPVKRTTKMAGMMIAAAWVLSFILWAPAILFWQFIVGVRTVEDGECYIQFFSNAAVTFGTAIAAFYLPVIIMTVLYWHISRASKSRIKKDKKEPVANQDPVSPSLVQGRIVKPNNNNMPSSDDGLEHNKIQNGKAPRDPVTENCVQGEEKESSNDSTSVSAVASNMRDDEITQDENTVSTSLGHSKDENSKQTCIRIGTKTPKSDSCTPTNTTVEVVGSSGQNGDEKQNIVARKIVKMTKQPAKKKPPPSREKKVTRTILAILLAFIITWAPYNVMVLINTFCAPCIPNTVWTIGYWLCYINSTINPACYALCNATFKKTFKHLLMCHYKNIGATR
The format is functional, cell-based.

Another test concerns the target T3, Adenosine receptor A3 (Homo sapiens, UniProt P0DMS8).
T3 sequence (P0DMS8 whole entry): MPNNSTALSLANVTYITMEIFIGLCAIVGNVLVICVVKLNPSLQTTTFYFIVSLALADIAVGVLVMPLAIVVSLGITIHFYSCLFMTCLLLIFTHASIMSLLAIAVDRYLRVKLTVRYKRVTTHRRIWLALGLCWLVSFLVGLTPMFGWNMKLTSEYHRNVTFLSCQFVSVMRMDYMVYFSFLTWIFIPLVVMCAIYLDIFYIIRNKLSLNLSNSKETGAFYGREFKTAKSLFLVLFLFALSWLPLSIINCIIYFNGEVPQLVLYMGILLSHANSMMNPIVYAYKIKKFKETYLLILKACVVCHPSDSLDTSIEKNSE

Test [5] addresses Sodium-dependent dopamine transporter (Homo sapiens, UniProt Q01959).
Test [6] addresses T4, 5-hydroxytryptamine receptor 1A (Homo sapiens, UniProt P08908).
T4 sequence (P08908 whole entry): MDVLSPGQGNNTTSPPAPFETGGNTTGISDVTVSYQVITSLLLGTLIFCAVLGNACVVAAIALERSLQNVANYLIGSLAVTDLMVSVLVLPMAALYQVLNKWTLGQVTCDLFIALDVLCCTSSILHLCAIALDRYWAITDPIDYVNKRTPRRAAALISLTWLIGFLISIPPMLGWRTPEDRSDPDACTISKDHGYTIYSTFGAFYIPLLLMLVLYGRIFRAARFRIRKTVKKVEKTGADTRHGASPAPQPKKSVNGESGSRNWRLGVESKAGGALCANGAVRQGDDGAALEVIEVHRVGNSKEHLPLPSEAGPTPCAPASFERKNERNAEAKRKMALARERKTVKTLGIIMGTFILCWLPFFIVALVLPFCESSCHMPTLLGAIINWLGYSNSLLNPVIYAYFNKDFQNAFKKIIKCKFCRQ
The format is functional, cell-based.

The target of test [7] is Neuronal acetylcholine receptor subunit alpha-4 (Homo sapiens, UniProt P43681).
Chain of Neuronal acetylcholine receptor subunit alpha-4 (P43681 whole entry): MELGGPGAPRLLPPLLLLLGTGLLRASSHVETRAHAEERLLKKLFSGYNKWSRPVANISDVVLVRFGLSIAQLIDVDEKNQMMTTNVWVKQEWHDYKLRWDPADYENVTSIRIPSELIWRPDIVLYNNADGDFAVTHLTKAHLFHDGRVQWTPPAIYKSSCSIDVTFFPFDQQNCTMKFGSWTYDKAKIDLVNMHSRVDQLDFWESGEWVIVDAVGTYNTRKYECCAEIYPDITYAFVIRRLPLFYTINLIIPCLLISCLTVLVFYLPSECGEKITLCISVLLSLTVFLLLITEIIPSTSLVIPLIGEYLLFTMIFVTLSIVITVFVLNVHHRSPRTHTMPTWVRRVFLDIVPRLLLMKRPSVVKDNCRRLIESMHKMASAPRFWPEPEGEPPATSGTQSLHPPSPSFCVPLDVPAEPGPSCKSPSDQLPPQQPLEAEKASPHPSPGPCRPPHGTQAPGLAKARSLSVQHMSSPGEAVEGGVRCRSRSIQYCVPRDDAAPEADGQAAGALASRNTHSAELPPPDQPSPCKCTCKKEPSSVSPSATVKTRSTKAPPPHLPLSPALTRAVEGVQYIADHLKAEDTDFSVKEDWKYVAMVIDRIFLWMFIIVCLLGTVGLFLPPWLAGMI
Test [8] deals with Gamma-aminobutyric acid receptor subunit alpha-1 (Rattus norvegicus, UniProt P62813). The format is functional.
Chain of Gamma-aminobutyric acid receptor subunit alpha-1 (P62813 whole entry): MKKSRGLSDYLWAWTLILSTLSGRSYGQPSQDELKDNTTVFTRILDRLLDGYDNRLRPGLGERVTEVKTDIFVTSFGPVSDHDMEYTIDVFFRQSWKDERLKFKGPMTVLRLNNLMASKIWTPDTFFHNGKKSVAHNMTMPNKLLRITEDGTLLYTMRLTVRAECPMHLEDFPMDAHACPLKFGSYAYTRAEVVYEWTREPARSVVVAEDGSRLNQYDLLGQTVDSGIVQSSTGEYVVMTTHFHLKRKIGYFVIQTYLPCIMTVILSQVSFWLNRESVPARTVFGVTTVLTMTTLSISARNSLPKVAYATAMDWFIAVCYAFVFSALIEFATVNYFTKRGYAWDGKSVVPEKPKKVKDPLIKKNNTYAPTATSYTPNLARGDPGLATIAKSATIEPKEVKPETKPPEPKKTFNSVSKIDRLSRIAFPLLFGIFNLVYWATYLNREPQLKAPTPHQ
In test [9] the target is T5, Alpha-2A adrenergic receptor (Homo sapiens, UniProt P08913).
T5 sequence (P08913 whole entry): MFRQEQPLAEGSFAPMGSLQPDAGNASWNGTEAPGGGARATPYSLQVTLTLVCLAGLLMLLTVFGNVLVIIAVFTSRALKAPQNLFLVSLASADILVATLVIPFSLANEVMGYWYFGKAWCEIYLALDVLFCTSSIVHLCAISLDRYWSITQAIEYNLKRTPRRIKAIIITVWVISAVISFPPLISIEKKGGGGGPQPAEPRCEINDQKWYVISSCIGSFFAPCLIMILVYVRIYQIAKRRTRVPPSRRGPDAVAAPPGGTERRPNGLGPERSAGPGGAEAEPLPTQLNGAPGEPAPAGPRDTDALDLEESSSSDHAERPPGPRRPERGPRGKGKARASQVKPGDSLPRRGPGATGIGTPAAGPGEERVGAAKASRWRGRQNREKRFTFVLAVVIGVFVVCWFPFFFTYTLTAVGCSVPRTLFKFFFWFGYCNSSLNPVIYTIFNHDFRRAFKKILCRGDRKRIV
The format is functional, cell-based.

One may read the AC50 as the concentration giving half of the maximal activity seen.
Further: assay procedure not described here.

Chain of Adenosine receptor A2a (P29274 whole entry): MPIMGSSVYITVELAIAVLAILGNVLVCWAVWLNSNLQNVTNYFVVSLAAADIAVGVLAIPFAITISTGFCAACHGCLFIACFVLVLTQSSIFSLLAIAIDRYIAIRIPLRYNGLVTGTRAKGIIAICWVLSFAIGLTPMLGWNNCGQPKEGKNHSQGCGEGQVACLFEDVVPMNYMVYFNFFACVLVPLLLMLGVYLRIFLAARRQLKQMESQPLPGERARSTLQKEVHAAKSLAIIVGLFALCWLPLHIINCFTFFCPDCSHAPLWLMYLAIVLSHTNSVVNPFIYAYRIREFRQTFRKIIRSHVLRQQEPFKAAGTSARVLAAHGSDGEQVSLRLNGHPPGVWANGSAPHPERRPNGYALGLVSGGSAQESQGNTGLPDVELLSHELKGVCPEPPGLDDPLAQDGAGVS
Chain of D(3) dopamine receptor (P35462 whole entry): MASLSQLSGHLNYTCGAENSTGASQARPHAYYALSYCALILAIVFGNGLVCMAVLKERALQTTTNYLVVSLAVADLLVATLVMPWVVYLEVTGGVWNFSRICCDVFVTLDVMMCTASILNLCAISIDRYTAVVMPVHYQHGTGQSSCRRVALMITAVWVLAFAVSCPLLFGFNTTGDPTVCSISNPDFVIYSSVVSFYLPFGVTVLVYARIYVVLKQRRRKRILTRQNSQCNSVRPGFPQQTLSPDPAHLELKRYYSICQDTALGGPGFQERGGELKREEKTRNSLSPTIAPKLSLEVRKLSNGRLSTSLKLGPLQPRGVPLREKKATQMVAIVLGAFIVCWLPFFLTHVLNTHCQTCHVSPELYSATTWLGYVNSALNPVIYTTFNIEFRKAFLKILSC
Chain of Melanocortin receptor 3 (P41968 whole entry): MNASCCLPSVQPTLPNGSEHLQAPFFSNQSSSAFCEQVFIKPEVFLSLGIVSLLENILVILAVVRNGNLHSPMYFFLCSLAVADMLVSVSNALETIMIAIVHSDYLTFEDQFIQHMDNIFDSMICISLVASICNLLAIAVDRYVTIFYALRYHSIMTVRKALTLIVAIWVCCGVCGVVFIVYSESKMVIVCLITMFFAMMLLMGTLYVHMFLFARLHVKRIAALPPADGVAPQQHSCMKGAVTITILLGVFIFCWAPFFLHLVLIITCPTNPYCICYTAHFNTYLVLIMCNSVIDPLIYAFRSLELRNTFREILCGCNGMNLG
Chain of Growth hormone secretagogue receptor type 1 (Q92847 whole entry): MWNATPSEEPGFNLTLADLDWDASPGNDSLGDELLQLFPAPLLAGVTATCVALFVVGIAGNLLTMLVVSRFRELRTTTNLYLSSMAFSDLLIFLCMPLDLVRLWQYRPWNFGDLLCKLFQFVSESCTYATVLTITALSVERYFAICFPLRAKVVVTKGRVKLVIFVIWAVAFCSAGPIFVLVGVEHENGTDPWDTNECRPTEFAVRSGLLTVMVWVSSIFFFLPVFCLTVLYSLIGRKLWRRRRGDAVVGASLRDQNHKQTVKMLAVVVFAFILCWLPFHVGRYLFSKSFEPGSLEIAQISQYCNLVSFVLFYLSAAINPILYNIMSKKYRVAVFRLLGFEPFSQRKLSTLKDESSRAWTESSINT
Chain of Sodium-dependent dopamine transporter (Q01959 whole entry): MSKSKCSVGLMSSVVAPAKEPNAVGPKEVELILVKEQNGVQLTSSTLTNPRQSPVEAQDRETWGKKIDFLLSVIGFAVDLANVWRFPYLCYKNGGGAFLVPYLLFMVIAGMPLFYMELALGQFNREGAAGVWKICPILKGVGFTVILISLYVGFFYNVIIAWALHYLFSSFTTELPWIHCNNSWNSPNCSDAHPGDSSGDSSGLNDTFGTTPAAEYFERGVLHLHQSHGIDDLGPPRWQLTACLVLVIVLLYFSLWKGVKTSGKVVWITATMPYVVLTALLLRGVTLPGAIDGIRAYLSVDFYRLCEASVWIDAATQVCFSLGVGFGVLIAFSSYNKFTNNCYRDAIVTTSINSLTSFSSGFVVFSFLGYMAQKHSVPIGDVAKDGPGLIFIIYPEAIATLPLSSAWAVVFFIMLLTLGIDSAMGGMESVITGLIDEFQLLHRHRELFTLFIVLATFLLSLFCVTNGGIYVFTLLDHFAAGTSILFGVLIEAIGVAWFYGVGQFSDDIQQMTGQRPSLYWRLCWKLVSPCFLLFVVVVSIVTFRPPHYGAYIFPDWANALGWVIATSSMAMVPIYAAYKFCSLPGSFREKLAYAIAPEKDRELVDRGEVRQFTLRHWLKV

Consider `C#C[C@]1(O)CC[C@H]2[C@@H]3[C@H](C)CC4=C(CCC(=O)C4)[C@H]3CC[C@@]21C` [TIBOLONE], for which the concentration at half-maximal activity (AC50) (on Adenosine receptor A2a; in test [1]; in test [2]; on D(3) dopamine receptor; in [3]; in test [4]) was greater than 30 µM throughout. Moreover, the AC50 at Adenosine receptor A3 is 8.1 µM; in [5] it was 27 µM; in [6], greater than 30 µM; in [7], greater than 30 µM; in [8], 30 µM; on Melanocortin receptor 3, greater than 30 µM. The concentration at half-maximal activity (AC50) in test [9] is greater than 30 µM.
With `NC(=O)OCC(COC(N)=O)c1ccccc1` [FELBAMATE], the AC50 (at Adenosine receptor A2a; in test [1]; in test [2]; at D(3) dopamine receptor; in test [3]; in [4]) was greater than 10 µM throughout. The AC50 (at Adenosine receptor A3; in test [5]; in test [6]; in test [7]; in [8]; at Melanocortin receptor 3) was greater than 10 µM throughout. The compound also registered a concentration at half-maximal activity (AC50) in [9] greater than 10 µM.
Take `COc1ccc(CCNCC(O)COc2cccc(C)c2)cc1OC` (stereo unspecified) [BEVANTOLOL]: the AC50 at Adenosine receptor A2a is greater than 10 µM; in test [1], greater than 10 µM; in test [2], greater than 10 µM; on D(3) dopamine receptor, greater than 30 µM; in [3], greater than 10 µM; in [4] it was greater than 10 µM. For the same compound, the concentration at half-maximal activity (AC50) at Adenosine receptor A3 was greater than 10 µM; in test [5], 16.2 µM; in test [6], 1.2 µM; in test [7] it was greater than 10 µM; in [8] it was greater than 10 µM; on Melanocortin receptor 3, greater than 10 µM. Moreover, in test [9], the AC50 is greater than 10 µM.
Consider `CC(C)(C)NCC(O)COc1cccc2c1CCC(=O)N2` (stereo unspecified) [CARTEOLOL], for which the AC50 is greater than 10 µM on Adenosine receptor A2a; greater than 10 µM in [1]; greater than 10 µM in test [2]; greater than 30 µM on D(3) dopamine receptor; greater than 10 µM in test [3]; greater than 10 µM in [4]. For the same compound, the AC50 (at Adenosine receptor A3; in test [5]; in test [6]; in test [7]; in test [8]; on Melanocortin receptor 3) was greater than 10 µM in each case. For the same compound, the AC50 in [9] was greater than 10 µM.
Consider `C[C@@H]1O[C@@H](O[C@@H]2C=C3CC[C@@H]4[C@H](CC[C@]5(C)[C@@H](c6ccc(=O)oc6)CC[C@]45O)[C@@]3(C)CC2)[C@H](O)[C@H](O)[C@H]1O` [PROSCILLARIDIN], for which the concentration at half-maximal activity (AC50) (at Adenosine receptor A2a; in test [1]; in test [2]; on D(3) dopamine receptor; in [3]; in test [4]) was greater than 30 µM in each case. In addition, the AC50 (at Adenosine receptor A3; in [5]; in test [6]; in test [7]; in test [8]; at Melanocortin receptor 3) was greater than 30 µM throughout. Besides, the AC50 in test [9] is greater than 30 µM.
Take `NC(=O)CN1CC(O)CC1=O` (stereo unspecified) [OXIRACETAM]: the AC50 (at Adenosine receptor A2a; in test [1]; in test [2]; on D(3) dopamine receptor; in test [3]; in test [4]) was greater than 30 µM each time. The half-maximal activity concentration (AC50) (at Adenosine receptor A3; in [5]; in test [6]; in [7]; in [8]; on Melanocortin receptor 3) was greater than 30 µM in each case. The same compound gave a concentration at half-maximal activity (AC50) in test [9] greater than 30 µM.
Turning to `Fc1ccc(C(c2ccccc2)(c2ccccc2F)n2ccnc2)cc1` (stereo unspecified) [FLUTRIMAZOLE], the half-maximal activity concentration (AC50) (on Adenosine receptor A2a; in [1]; in [2]; on D(3) dopamine receptor; in [3]; in [4]) was greater than 30 µM in each case. Moreover, the AC50 on Adenosine receptor A3 is 15 µM; in test [5] it was 23 µM; in test [6], greater than 30 µM; in test [7], greater than 30 µM; in test [8], greater than 30 µM; on Melanocortin receptor 3, greater than 30 µM. The same compound showed an AC50 in test [9] greater than 30 µM.
